One experiment concerns the target T1, DeepVent DNA polymerase (Pyrococcus sp., UniProt Q51334, DEL493-1029).
T1 construct: purchased
Put plainly: Elongation (fill-in) assay on 200-mer template with modified uridine triphosphates. The class given is biochemical. As to conditions: modified nucleotide replaces dTTP at 100%; 72° C., 30 min. How it is done:
(§1) A synthetic template of 200 bases was used to determine the capacity of Deep Vent and Manta DNA polymerase to integrate modified uridine triphosphate. The synthesis was initiated from a 20 bases complementary oligonucleotide and various conditions were tested. In lanes 1 and 6, all triphosphate nucleotide except dTTP were added in the reaction mix according to the manufacturer recommendation (negative control) to determine if the polymerase is stopped at positions where it needs to integrate a thymidine. In lane 2, dTTP was added to the reaction mix as the positive control where full length construct should be obtained. In lanes 3 and 7, 4 and 8 and 5 and 9, IdU, FdU and CldU were added to the reaction mix respectively to replace at 100% the dTTP. […] This is not the case for the Manta DNA polymerase as the only product observed is where the polymerase should have integrated a thymidine.
(§2) In order to identify the proper DNA polymerase that can utilise modified uridine triphosphate, we performed an elongation assay with different DNA polymerases and various combination of nucleotide mixes, using a 22-mer primer (PS2508, SEQ ID NO: 1) annealed to a 200-mer template (PS2509, SEQ ID NO:2). As the template contains a lot of instances of adenines, there are multiple positions where the polymerase must be able to incorporate uridine to be able to produce full length fill in reaction.
(§3) On the other hand, when dTTP or dUTP was replaced with a modified dUTP, a full-length reaction product was detected for both Manta™ and DeepVent DNA polymerases.
(§4) The conditions for the fill in reaction were as follow: dATP, dGTP, dCTP and Iodo dUTP were prepared in a mix at 500 μM each and used at a final concentration of 100 μM final; 1 μl of Manta™ or DeepVent polymerase were used on 10 pmoles of the 200-mer (PS2509) with the 22-mer primer (PS2508) pre-annealed to initiate the fill-in.
(§5) The incubation was done for 30 min at 65° C. for the Manta or 72° C. for the DeepVent, in a MiniAmp thermalCycler (Applied Biosystems) with lid at 105° C. to prevent evaporation.

The target in the next experiment is T2, Manta DNA polymerase (Geobacillus stearothermophilus, UniProt P52026).
T2 construct: Bst DNA Polymerase, Large Fragment (e.g., Manta®); purchased
T2 sequence (P52026 289-876 limits assumed): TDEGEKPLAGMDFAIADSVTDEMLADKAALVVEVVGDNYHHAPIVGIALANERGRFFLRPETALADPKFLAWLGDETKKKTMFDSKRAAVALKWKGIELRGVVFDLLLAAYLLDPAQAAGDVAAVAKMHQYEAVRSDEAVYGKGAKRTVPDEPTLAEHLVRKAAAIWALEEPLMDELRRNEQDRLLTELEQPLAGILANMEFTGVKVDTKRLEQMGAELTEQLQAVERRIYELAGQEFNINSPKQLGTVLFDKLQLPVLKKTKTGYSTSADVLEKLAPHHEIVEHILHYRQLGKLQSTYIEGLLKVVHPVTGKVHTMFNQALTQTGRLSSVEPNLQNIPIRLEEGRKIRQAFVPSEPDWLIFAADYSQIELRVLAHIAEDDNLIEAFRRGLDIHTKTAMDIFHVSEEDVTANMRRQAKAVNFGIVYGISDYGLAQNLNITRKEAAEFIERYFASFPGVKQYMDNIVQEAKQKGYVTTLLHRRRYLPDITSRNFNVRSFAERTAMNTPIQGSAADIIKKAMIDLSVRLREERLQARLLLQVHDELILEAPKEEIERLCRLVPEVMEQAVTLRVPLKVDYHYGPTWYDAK
Described as above. The note with it: modified nucleotide replaces dTTP at 100%; 65° C., 30 min. The class given is biochemical. How it is done: as §1, §2, §3, §4, §5

Experiment [1] concerns the target T3, MANTA polymerase (Geobacillus stearothermophilus, UniProt P52026).
T3 sequence (P52026 289-876 limits assumed): T2 sequence (P52026 289-876 limits assumed)
Put plainly: Incorporation of two modified nucleotides in one fill-in reaction, distribution detected by antibodies on hairpins. The class given is biochemical. Set-up: Bst DNA Polymerase, Large Fragment (e.g., Manta®); purchased. The note with it: iodo-dUTP 5 μM and pseudo-dUTP 95 μM replacing dTTP; anti-iodouridine and anti-pseudouridine antibodies. From the text: After synthesis, the hairpin was assembled and assessed with both anti-iodouridine antibody and anti-pseudouridine antibody.
FIG. 4B: For each molecule, we counted the number of positions detected by either the anti-IdU or anti-pseudouridine over the expected total number of positions for this sequence. We then plotted the distribution of each modification for all the functional molecules.
One of the 50 long oligonucleotides described in Example 3 was used as a template to incorporate two different modified nucleotides at the same time. Both iodo-dUTP as well as pseudo-dUTP were included in the nucleotide mix (at 5 μM and 95 μM respectively) during the replication step to completely replace the natural base dTTP. After synthesis of the complementary strand, the hairpin was assembled and assessed with both anti-iodouridine antibody (clone OTI2F8 from Abcam) and anti-pseudouridine antibody (Cat. No. C15200236, Diagenode) (FIG. 4A).
The distribution of each modified base in the hairpin was determined for each modification (FIG. 4B).

For experiment [2], the target named is T3, MANTA polymerase. Description: Measurement of the KD of modified uridine triphosphates, single-adenine template, FITC primer, PAGE. The note with it: 65° C., 2 minutes; 100 μM dATP, dCTP, dGTP; no dTTP.
Description: The reaction was supplemented with dATP, dCTP and dGTP as well as the uridine triphosphate tested (no dTTP was added to the reaction).
The KD is defined as the concentration of the modified dUTP required to produce 50% of fill in reaction. […] We then produced a second, simpler template comprising only one adenine in the template followed by 15 random bases excluding adenine (PS2972, SEQ ID NO:3). The template was designed such that the 3′ end of the complementary oligonucleotide tagged with FITC (PS1289, SEQ ID NO:4) ends at the base just before the adenine in the 32-base oligonucleotide. After annealing of these two oligonucleotides, there is thus only one A position where modified dUTP could be inserted (see FIG. 2A).
It was expected that if dCTP, dATP and dGTP were present in the reaction mix along with one of the modified uridine triphosphates, if the modified uridine was integrated by the polymerase, 16 bases would be added, thereby yielding a 32 base-long oligonucleotide tagged with FITC. […]
Polymerisation reactions were prepared with the Manta polymerase. […] Fluorescence of the reaction products were then quantified with ImageJ (National Institutes of Health).
For each modified uridine triphosphate, the ratio of fully extended product over the total amount of FITC-labelled oligonucleotide was calculated and plotted on a graph as a function of the concentration. […]

T1 sequence (Q51334 other isoform, or with tags, fused parts or gaps DEL493-1029): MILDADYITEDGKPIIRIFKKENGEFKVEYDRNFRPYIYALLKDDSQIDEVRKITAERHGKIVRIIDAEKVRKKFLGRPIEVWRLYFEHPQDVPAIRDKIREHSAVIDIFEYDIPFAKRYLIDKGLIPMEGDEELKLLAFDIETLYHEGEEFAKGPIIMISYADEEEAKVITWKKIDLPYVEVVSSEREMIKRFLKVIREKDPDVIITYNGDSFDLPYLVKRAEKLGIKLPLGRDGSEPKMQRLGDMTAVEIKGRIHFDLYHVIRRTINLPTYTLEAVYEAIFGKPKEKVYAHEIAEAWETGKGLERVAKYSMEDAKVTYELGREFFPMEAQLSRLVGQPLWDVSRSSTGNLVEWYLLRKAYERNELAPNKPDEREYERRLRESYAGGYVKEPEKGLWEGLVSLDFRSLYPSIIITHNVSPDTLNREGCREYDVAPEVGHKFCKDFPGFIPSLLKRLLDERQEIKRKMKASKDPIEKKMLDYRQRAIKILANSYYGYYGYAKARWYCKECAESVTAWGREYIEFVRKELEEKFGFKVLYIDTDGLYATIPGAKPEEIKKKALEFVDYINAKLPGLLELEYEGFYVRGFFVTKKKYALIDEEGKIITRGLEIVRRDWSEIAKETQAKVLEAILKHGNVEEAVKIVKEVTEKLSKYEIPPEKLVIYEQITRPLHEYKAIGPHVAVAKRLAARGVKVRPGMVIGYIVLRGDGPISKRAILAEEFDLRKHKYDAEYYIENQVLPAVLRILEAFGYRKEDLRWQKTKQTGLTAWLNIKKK

Consider `O=c1[nH]c(=O)n([C@H]2C[C@H](O)[C@@H](COP(=O)(O)OP(=O)(O)OP(=O)(O)O)O2)cc1Cl` [CldU, 5-chloro-2′-deoxyuridine-5′-triphosphate], for which the “full length product in polymerisation reaction” value on DeepVent DNA polymerase and at Manta DNA polymerase was “full length products were obtained” in each case.

With `O=c1[nH]c(=O)n([C@H]2C[C@H](O)[C@@H](COP(=O)(O)OP(=O)(O)OP(=O)(O)O)O2)cc1F` [FdU, 5-fluoro-2′-deoxyuridine-5′-triphosphate], the “full length product in polymerisation reaction” value at DeepVent DNA polymerase and at Manta DNA polymerase was “full length products were obtained” each time.

Turning to pseudouridine-5′-triphosphate, the “distribution of each modified base in the final hairpin” value on MANTA polymerase [1] was “equal distribution”. On MANTA polymerase [2], the “KD (concentration of the modified dUTP required to produce 50% of fill in reaction) compared with dTTP” value was “almost twice the KD of dTTP”.

(Values after patent US20250003011A1, “SAMPLE PREPARATION METHODS USING MODIFIED BASES FOR RAPID IDENTIFICATION AND SEQUENCING” (priority 2023, published 2025).)
